Marks after values point to notes of the source that are not given here.
Legend:
[1] = Dissolution of solid phase cystine by cystine binding drugs in incubation buffer; details: for Regression slope of cystine uptake on drug molarity, BUFFER: incubation buffer, 48 hours, 37° C.
Experimental: (§1) Using the same incubation buffer and cystine-dissolving agent systems as for the initial solid phase dissolution assay given in Example 1, increasing amounts of D-penicillamine, tiopronin, or captopril were added to 25 ml aliquots of the incubation buffer. A fixed amount of cystine was added; for tiopronin and D-penicillamine, about 40 mg, and for captopril about 20 mg. […] Incubation was carried out as in Example 1. After 48 hours, the pellet and supernatant were separated by centrifugation, the pellet was dissolved in 25 ml of cystine-dissolving agent, an alkalinizing buffer of 0.1 M sodium carbonate, pH 9.9, (Sigma Aldrich Corp, Catalog # S-7795), to form a final cystine solution. Cystine concentration was determined both in the supernatant and the final cystine solution according to the procedure given in Example 3. This same protocol was repeated using the ten normal urine samples employed in the basic solid phase dissolution study described in Example 1.
(§2) Cystine concentrations in either the incubation buffer or normal urine after removal of the residual solid phase cystine, or the final cystine solution after the dissolution of the solid phase cystine in a cystine-dissolving agent as shown in Example 1 and 2 were measured using the modified cyanide-nitroprusside method for quantifying urinary cystine concentration as reported by Nakagawa and Coe (Nakagawa, Y. and Coe, F. 1999. Clin Chim Acta 289:57–68). A 100 microliter aliquot was mixed with 400 microliters of water and 1 milliliter of 0.01 M sodium phosphate buffer containing 0.15 mol/liter NaCl, pH 7.3 (PBS). After adding 300 microliters of 10% NaCN aqueous solution (w/v), the sample was incubated for twenty minutes at room temperature. Color was developed by adding 100 microliters of 20% sodium nitroprusside aqueous solution (w/v). Within 20 seconds of the sodium nitroprusside addition, color intensity was then measured at 521 nm using a Beckman spectrophotometer (model DU 640), and cystine concentration was calculated by comparison to a standard curve which was prepared with each assay.
(§3) Routine means and t tests and linear regression analysis used standard statistical software (Systat, SPSS Corp., Chicago, Ill.). Differences in slopes of uptake with drugs were assessed by multivariate analysis in which cystine uptake was the dependent variable; drug molarity, the independent variable; either buffer vs urine or drug type, the categorical variable; and probability of homogeneity of slopes between the groups, defined by the categorical variable tested. Simple regression analysis was used to obtain the actual values of the slopes.

[2] = Dissolution of solid phase cystine by cystine binding drugs in normal urine; set-up: species or system human; details: for molar proportion of cystine dissolved per drug, urine: normal urine; for Regression slope of cystine uptake on drug molarity, URINE: ten normal urine samples, 48 hours, 37° C.
Experimental: as §1, §2, §3

[3] = general statement; cited from earlier work

Row | Compound | molar proportion of cystine dissolved per drug, buffer [1] | Regression slope of cystine uptake on drug molarity, BUFFER [1] | molar proportion of cystine dissolved per drug, urine [2] | Regression slope of cystine uptake on drug molarity, URINE [2] | solubility of cystine in average normal urine [3]
1 | CC(C)(S)[C@@H](N)C(=O)O [D-penicillamine] | 0.24±0.01 mole/mole | 0.25 ± 0.01 | 0.21±0.008 mole/mole | 0.21 ± 0.01 | –
2 | CC(S)C(=O)NCC(=O)O (stereo not shown) [tiopronin] | 0.41±0.02 mole/mole | 0.41 ± 0.02# | 0.36±0.01 mole/mole | 0.36 ± 0.01 | –
3 | C[C@H](CS)C(=O)N1CCC[C@H]1C(=O)O [captopril] | 0.36±0.04 mole/mole | 0.36 ± 0.04# | 0.35±0.01 mole/mole | 0.35 ± 0.01# | –
4 | N[C@@H](CSSC[C@H](N)C(=O)O)C(=O)O [cystine] | – | – | – | – | 200 to 400 µg/mL
